Assay results: patent US6559142B2, “Sulfonamide matrix metalloproteinase inhibitors” (Warner-Lambert Company, priority 2001, dated 2003)

What was measured:
Format in all cases: biochemical
[1] = biological target: MMP-14CD (catalytic domain of MMP-14) (Homo sapiens, UniProt P50281); experiment: Thiopeptolide hydrolysis inhibition assay, MMP-14CD; conditions: thiopeptolide substrate, HEPES pH 7.0, 22° C.
Text: (§1) The assays measure the amount by which a test compound reduces the hydrolysis of a thiopeptolide substrate catalyzed by a matrix metalloproteinase enzyme. Such assays are described in detail by Ye et al., Biochemistry, 1992;31(45):11231-11235, hereby incorporated herein by reference.
(§2) Thiopeptolide substrates show virtually no decomposition or hydrolysis at or below neutral pH in the absence of a matrix metalloproteinase enzyme. A typical thiopeptolide substrate commonly utilized for assays is Ac-Pro-Leu-Gly-thioester-Leu-Leu-Gly-OEt. A 100 μL assay mixture will contain 50 mM of N-2-hydroxyethylpiperazine-N′-2-ethanesulfonic acid buffer (“HEPES”) at pH 7.0, 10 mM CaCl2, 100 μM thiopeptolide substrate, and 1 mM 5,5′-dithio-bis-(2-nitrobenzoic acid) (DTNB). The thiopeptolide substrate concentration may be varied from, for example, 10 to 800 μM, in order to obtain Km and Kcat values. The change in absorbance at 405 nm is monitored on a Thermo Max microplate reader (Molecular Devices, Menlo Park, Calif.) at room temperature (22° C.). The calculation of the amount of hydrolysis of the thiopeptolide substrate is based on E412=13600 M^−1 cm^−1 for the DTNB-derived product 3-carboxy-4-nitrothiophenoxide. Assays are carried out with and without matrix metalloproteinase inhibitor compounds, and the amount of hydrolysis is compared for a determination of inhibitory activity of the test compounds.
(§3) Several representative compounds have been evaluated for their ability to inhibit various matrix metalloproteinase enzymes. In Table 1, MMP-1FL refers to full-length interstitial collagenase; MMP-2FL refers to full-length Gelatinase A; MMP-3CD refers to the catalytic domain of stromelysin-1; MMP-7FL refers to full-length matrilysin; MMP-9FL refers to full-length Gelatinase B; MMP-13CD refers to the catalytic domain of collagenase 3; and MMP-14CD refers to the catalytic domain of MMP-14. Test compounds were evaluated at various concentrations, in order to determine their respective IC50 values, the micromolar concentration of compound required to cause a 50% inhibition of the catalytic activity of the respective enzyme.

[2] = biological target: T1, MMP-7FL (full-length matrilysin) (Homo sapiens, UniProt P09237); experiment: Thiopeptolide hydrolysis inhibition assay, MMP-7FL; conditions: thiopeptolide substrate, HEPES pH 7.0, 22° C.
T1 sequence (P09237 95-267): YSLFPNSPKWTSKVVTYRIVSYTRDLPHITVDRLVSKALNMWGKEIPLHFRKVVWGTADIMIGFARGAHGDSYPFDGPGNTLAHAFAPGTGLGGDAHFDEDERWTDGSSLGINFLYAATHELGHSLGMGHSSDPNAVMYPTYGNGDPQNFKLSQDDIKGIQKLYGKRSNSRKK
Text: as §1, §2, §3

[3] = biological target: MMP-3CD (catalytic domain of stromelysin-1) (Homo sapiens, UniProt P08254); experiment: Thiopeptolide hydrolysis inhibition assay, MMP-3CD; conditions: thiopeptolide substrate, MES buffer pH 6.0
Text: as §1, §2
It should be appreciated that the assay buffer used with MMP-3CD is 50 mM of N-morpholinoethanesulfonate (“MES”) at pH 6.0 rather than the HEPES buffer at pH 7.0 described above.
as §3

[4] = biological target: T2, MMP-1FL (full-length interstitial collagenase) (Homo sapiens, UniProt P03956); experiment: Thiopeptolide hydrolysis inhibition assay, MMP-1FL; conditions: thiopeptolide substrate, HEPES pH 7.0, 22° C.
T2 sequence (P03956 100-469): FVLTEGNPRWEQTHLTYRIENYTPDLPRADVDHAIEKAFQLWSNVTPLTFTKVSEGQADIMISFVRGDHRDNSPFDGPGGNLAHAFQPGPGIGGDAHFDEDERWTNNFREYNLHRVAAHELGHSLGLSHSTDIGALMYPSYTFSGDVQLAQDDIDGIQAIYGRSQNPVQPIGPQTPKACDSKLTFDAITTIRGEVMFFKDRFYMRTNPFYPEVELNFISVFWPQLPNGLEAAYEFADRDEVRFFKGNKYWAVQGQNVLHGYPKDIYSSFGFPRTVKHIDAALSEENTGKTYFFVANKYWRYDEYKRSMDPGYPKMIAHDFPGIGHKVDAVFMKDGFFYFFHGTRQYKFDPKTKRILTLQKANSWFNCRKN
Text: as §1, §2, §3

[5] = biological target: MMP-13CD (catalytic domain of collagenase 3) (Homo sapiens, UniProt P45452); experiment: Thiopeptolide hydrolysis inhibition assay, MMP-13CD; conditions: thiopeptolide substrate, HEPES pH 7.0, 22° C.
Text: as §1, §2, §3

[6] = biological target: MMP-9FL (full-length Gelatinase B) (Homo sapiens, UniProt P14780); experiment: Thiopeptolide hydrolysis inhibition assay, MMP-9FL; conditions: thiopeptolide substrate, HEPES pH 7.0, 22° C.
Text: as §1, §2, §3

[7] = biological target: T3, MMP-2FL (full-length Gelatinase A) (Homo sapiens, UniProt P08253); experiment: Thiopeptolide hydrolysis inhibition assay, MMP-2FL; conditions: thiopeptolide substrate, HEPES pH 7.0, 22° C.
T3 sequence (P08253 110-660): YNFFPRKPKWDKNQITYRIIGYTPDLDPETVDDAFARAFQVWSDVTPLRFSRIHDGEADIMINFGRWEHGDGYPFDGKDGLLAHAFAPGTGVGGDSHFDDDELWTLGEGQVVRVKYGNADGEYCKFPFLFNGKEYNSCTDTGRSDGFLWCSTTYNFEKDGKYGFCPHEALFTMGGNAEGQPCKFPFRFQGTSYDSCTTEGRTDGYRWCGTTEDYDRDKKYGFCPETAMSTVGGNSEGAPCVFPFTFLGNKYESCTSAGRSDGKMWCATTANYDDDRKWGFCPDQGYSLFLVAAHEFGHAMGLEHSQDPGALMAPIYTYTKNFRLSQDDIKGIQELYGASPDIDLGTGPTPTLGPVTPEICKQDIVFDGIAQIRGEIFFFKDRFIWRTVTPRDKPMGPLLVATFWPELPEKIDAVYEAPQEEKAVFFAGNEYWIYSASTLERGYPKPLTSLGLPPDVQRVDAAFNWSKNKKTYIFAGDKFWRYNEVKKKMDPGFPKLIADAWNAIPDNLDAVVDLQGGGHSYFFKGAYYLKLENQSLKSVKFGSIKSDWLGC
Text: as §1, §2, §3

Chain of MMP-9FL (full-length Gelatinase B) (P14780 94-707, species assumed): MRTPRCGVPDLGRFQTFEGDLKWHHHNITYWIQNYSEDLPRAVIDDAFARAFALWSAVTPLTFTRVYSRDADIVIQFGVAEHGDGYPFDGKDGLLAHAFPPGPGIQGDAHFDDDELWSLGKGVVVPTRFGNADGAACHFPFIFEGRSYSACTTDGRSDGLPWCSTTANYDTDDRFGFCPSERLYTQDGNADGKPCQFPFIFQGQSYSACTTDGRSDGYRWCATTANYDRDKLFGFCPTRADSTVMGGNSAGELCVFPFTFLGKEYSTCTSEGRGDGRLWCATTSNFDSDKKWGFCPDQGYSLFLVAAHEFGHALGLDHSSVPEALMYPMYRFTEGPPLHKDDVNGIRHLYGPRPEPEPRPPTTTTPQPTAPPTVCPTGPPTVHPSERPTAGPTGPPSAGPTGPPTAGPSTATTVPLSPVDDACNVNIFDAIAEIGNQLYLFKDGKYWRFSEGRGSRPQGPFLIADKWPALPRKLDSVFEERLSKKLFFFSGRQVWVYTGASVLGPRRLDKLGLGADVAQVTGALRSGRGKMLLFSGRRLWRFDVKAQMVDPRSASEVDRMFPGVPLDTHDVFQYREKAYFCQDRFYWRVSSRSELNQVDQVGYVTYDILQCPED
Chain of MMP-3CD (catalytic domain of stromelysin-1) (P08254 100-272 limits assumed): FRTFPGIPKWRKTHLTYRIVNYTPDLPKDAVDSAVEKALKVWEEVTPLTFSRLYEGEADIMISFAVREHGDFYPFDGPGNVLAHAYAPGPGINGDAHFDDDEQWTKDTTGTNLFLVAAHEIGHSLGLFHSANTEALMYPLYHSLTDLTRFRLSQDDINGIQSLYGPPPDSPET

Row | Compound | IC50 [1] [nM] | IC50 [2] [nM] | IC50 [3] [nM] | IC50 [4] [nM] | IC50 [5] [nM] | IC50 [6] [nM] | IC50 [7] [nM]
1 | CC1(C)SCCN(S(=O)(=O)c2ccc3c(c2)oc2ccccc23)[C@H]1C(=O)O [Example 1, (S)-4-(Dibenzofuran-3-sulfonyl)-2,2-dimethyl-thiomorpholine-3-carboxylic Acid] | 64 | 55000 | 41 | 1420 | 970 | 22500 | 74
2 | CC1(C)SCCN(S(=O)(=O)c2ccc3c(c2)oc2ccccc23)[C@H]1C(=O)NO [Example 2, (S)-4-(Dibenzofuran-3-sulfonyl)-2,2-dimethyl-thiomorpholine-3-carboxylic Acid Hydroxyamide] | 26 | 200 | 11 | 13 | 4 | 210 | 15
3 | CC1(C)SCN(S(=O)(=O)c2ccc3c(c2)oc2ccccc23)[C@@H]1C(=O)O [Example 3, R-3-(Dibenzofuran-3-sulfonyl)-5,5-dimethyl-thiazolidine-4-carboxylic Acid] | 10000 | 100000 | 2500 | 100000 | 23000 | 150000 | 9500
4 | CC1(C)SCN(S(=O)(=O)c2ccc3c(c2)oc2ccccc23)[C@@H]1C(=O)NO [Example 4, R-3-(Dibenzofuran-3-sulfonyl)-5,5-dimethyl-thiazolidine-4-carboxylic Acid Hydroxyamide] | 11000 | 59000 | 3200 | 6900 | 1400 | 18000 | 3900
5 | CC1(C)SCCN(S(=O)(=O)c2ccc3c(c2)Cc2ccccc2-3)[C@H]1C(=O)O [Example 5, (S)-4-(9H-Fluorene-2-sulfonyl)-2,2-dimethyl-thiomorpholine-3-carboxylic Acid] | 840 | 100000 | 130 | 23000 | 5100 | 100000 | 500
6 | CC1(C)SCCN(S(=O)(=O)c2ccc3c(c2)Cc2ccccc2-3)[C@H]1C(=O)NO [Example 6, (S)-4-(9H-Fluorene-2-sulfonyl)-2,2-dimethyl-thiomorpholine-3-carboxylic Acid Hydroxyamide] | 63 | 880 | 8 | 140 | 4 | 550 | 24
7 | CC1(C)SCCN(S(=O)(=O)c2ccc3oc4ccccc4c3c2)[C@H]1C(=O)O [Example 7, (S)-4-(Dibenzofuran-2-sulfonyl)-2,2-dimethyl-thiomorpholine-3-carboxylic Acid] | 4000 | 16000 | 210 | 59000 | 11000 | 100000 | 3900
8 | CC1(C)SCCN(S(=O)(=O)c2ccc3oc4ccccc4c3c2)[C@H]1C(=O)NO [Example 8, (S)-4-(Dibenzofuran-2-sulfonyl)-2,2-dimethyl-thiomorpholine-3-carboxylic Acid Hydroxyamide] | 40 | 28 | 9 | 17 | 3 | 260 | 15
9 | CC1(C)SCCN(S(=O)(=O)c2ccc3oc4cc(Br)ccc4c3c2)[C@H]1C(=O)O [Example 9, (S)-4-(7-Bromo-dibenzofuran-2-sulfonyl)-2,2-dimethyl-thiomorpholine-3-carboxylic Acid] | 3800 | 1200 | 20 | 70000 | 920 | 65000 | 4000
10 | CC1(C)SCCN(S(=O)(=O)c2ccc3oc4cc(Br)ccc4c3c2)[C@H]1C(=O)NO [Example 10, (S)-4-(7-Bromo-dibenzofuran-2-sulfonyl)-2,2-dimethyl-thiomorpholine-3-carboxylic Acid Hydroxyamide] | 12 | 31 | 4 | 42 | 2 | 66 | 7
11 | COC(=O)c1ccc2c(c1)oc1ccc(S(=O)(=O)N3CCSC(C)(C)[C@@H]3C(=O)O)cc12 [Example 11, (S)-4-(7-Methoxycarbonyl-dibenzofuran-2-sulfonyl)-2,2-dimethyl-thiomorpholine-3-carboxylic Acid] | 20000 | 3500 | 94 | 100000 | 4600 | 69000 | 5200
12 | COC(=O)c1ccc2c(c1)oc1ccc(S(=O)(=O)N3CCSC(C)(C)[C@@H]3C(=O)NO)cc12 [Example 12, (S)-4-(7-Methoxycarbonyl-dibenzofuran-2-sulfonyl)-2,2-dimethyl-thiomorpholine-3-carboxylic Acid Hydroxyamide] | 95 | 29 | 6 | 150 | 5 | 47 | 17
13 | CC1(C)SCCN(S(=O)(=O)c2ccc3oc4cc([N+](=O)[O-])ccc4c3c2)[C@H]1C(=O)O [Example 13, (S)-2,2-Dimethyl-4-(7-nitro-dibenzofuran-2-sulfonyl)-thiomorpholine-3-carboxylic Acid] | 15000 | 1600 | 1000 | 60000 | 2700 | 100000 | 33000
14 | CC1(C)SCCN(S(=O)(=O)c2ccc3oc4cc([N+](=O)[O-])ccc4c3c2)[C@H]1C(=O)NO [Example 14, (S)-2,2-Dimethyl-4-(7-nitro-dibenzofuran-2-sulfonyl)-thiomorpholine-3-carboxylic Acid Hydroxyamide] | 24 | 38 | 5 | 12 | 2 | 190 | 22
15 | CC1(C)[C@H](C(=O)NO)N(S(=O)(=O)c2ccc3oc4ccccc4c3c2)CCS1(=O)=O [Example 15, (S)-4-(Dibenzofuran-2-sulfonyl)-2,2-dimethyl-1,1-dioxo-thiomorpholine-3-carboxylic Acid Hydroxyamide] | 98 | 32 | 8 | 33 | 13 | 1800 | 250
